The results in this text go back to patent publication US9808003B2, “Herbicidally active 2-(substituted-phenyl)-cyclopentane-1,3-dione compounds and derivatives thereof” (Syngenta Limited, priority 2013, dated 2017).

Common to all, as to format: in vivo
The subject of one assay is Winter Barley “Suzuka”. In words: Test 1B glasshouse assay, post-emergence herbicidal activity against cereal crops. As for the experimental part:
(§1) Biological Example 1B tests the herbicidal activity of“technical” compounds (i.e. compounds not previously formulated before the test), as the herbicides under test.
(§2) An “instant formulation”, known as the “IF50”, containing 50 g/liter (i.e. 5% w/v) of the “technical” (i.e. unformulated) active ingredient (i.e. the herbicide under test), is prepared by dissolving the active ingredient in a mixture of organic solvents and emulsifier, details of which are provided in the Table below.
(§3) This IF50 is mixed with a small, variable amount of acetone to aid dissolution, before addition of a 0.5% v/v aqueous solution of the adjuvant Adigor™ (an adjuvant containing rapeseed oil methyl ester, ethoxylated alcohols, and a mixture of heavy aromatic hydrocarbons, e.g. available from Syngenta), as the aqueous diluent, to form an aqueous spray solution which contains a predetermined concentration of the active ingredient (which varies depending on the application rate of the active ingredient to the plants) and 0.5% v/v of the adjuvant Adigor™. This aqueous spray solution is suitable for spraying onto plants.
(§4) Seeds of a variety of test species are sown in standard soil in pots. After cultivation for 14 days under controlled conditions in a glasshouse (at 22/16° C., day/night; 16 hours light; 65% humidity), the plants are sprayed post-emergence with the above-mentioned aqueous spray solution containing inter alia the “technical” active ingredient (i.e. the herbicide under test) and the adjuvant Adigor™.
(§5) The test plants are then grown on under controlled conditions in the glasshouse (at 22/16° C., day/night; 16 hours light; 65% humidity) and are watered twice daily. 14 days after application of the test herbicide, the test is evaluated visually for percentage phytotoxicity to the plant (where 100%=total damage to plant; 0%=no damage to plant).
(§6) More specifically, post-emergence herbicidal activity (phytotoxicity) data, on certain tested grassy monocotyledonous weeds (and/or plants of the type Gramineae) and cereal crops in the glasshouse, are measured 14 days after application of the herbicide (14 DAA), typically for inter alia one or more of the following application rates: • (a) a post-emergence application rate of 60 g/ha of the test herbicide with or without 50 g/ha of cloquintocet-mexyl safener, and • (b) a post-emergence application rate of 90 g/ha of the test herbicide with 50 g/ha of cloquintocet-mexyl safener, and • (c) a post-emergence application rate of 120 g/ha of the test herbicide with 50 g/ha of cloquintocet-mexyl safener.
(§7) The cloquintocet-mexyl, when used, is present in the formulation containing the herbicide under test dissolved in acetone plus IF50.
(§8) The range of herbicide application rates tested sometimes includes application rates other than those shown above, and the rates can vary depending on the herbicide under test.
(§9) Herbicidal activity (phytotoxicity) is evaluated visually, and an assessed percentage phytotoxicity score is given for each herbicidal application on each plant species (with 100%=total damage to plant; 0%=no damage to plant; the assessment is recorded in increments of 1%). Two replicates are made for each experiment, and the mean herbicidal activity (phytotoxicity) data is reported.

Another assay concerns Winter Wheat “Hereward”. The description is as above. As for the experimental part: as §1, §2, §3, §4, §5, §6, §7, §8, §9
Assay [1] has as its system Spring Barley “Harrington”. Described as above. As for the experimental part:
as §1, §2, §3, §4, §5, §6, §7, §8, §9

Assay [2] relates to Lolium multiflorum (LOLMU). Briefly: Test 1B glasshouse assay, post-emergence herbicidal activity against grassy weeds. The settings on record: 14 DAA. As for the experimental part:
as §1, §2, §3, §4, §5, §6, §7, §8, §9
(§10) For compounds A34, A98, A99, A87, A100, A101, A89, A120, A120A, A120B, A23, A127, A128, A89, A112 and A113 the tested weeds were as follows: Avena fatua (AVEFA), Lolium multiflorum (LOLMU), Setaria viridis (SETVI), Poa annua (POAAN), Alopecurus myosuroides (ALOMY). All five of these are grassy monocotyledonous weeds. Except for SETVI, these are all “cool-season” grassy monocotyledonous weeds.

For assay [3], the system named is Alopecurus myosuroides (ALOMY). The assay is described as above. The settings on record: 14 DAA. As for the experimental part:
as §1, §2, §3, §4, §5, §6, §7, §8, §9, §10

Assay [4] relates to Avena fatua (AVEFA). The assay is described as above. As to conditions: 14 DAA. As to the method: as §1, §2, §3, §4, §5, §6, §7, §8, §9, §10
A further assay has as its system Poa annua (POAAN). The description is as above. As to conditions: 14 DAA. As for the experimental part: as §1, §2, §3, §4, §5, §6, §7, §8, §9, §10
For the next assay, the system named is Setaria viridis (SETVI). The assay is described as above. The settings on record: 14 DAA. As to the method: as §1, §2, §3, §4, §5, §6, §7, §8, §9, §10
The subject of assay [5] is Alopecurus myosuroides (ALOMY). In words: Test 1A glasshouse assay, post-emergence herbicidal activity. The settings on record: Alopecurus myosuroides, 312 h, application rate 250 g/ha, 13 days after application, visual (100%=total damage; 0%=no damage), read-out: Post-emergence Herbicidal Activity (% Phytotoxicity) ALOMY. The procedure, abridged: (§11)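 Post-emergence spray at 8 d after sowing; vehicle acetone/water 50:50 + 0.5% Tween 20. Glasshouse 24/16 °C, 14 h light, 65% RH, watered 2×/day. Visual phytotoxicity (%) at 13 DAA.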

Assay [6] concerns Avena fatua (AVEFA). Described as above. As to conditions: Avena fatua, 312 h, application rate 250 g/ha, 13 days after application, visual (100%=total damage; 0%=no damage), read-out: Post-emergence Herbicidal Activity (% Phytotoxicity) AVEFA. The essentials:
as §11

In assay [7] the test system is Echinochloa crus-galli (ECHCG). The assay is described as above. The settings on record: Echinochloa crus-galli, 312 h, application rate 250 g/ha, 13 days after application, visual (100%=total damage; 0%=no damage), read-out: Post-emergence Herbicidal Activity (% Phytotoxicity) ECHCG. The essentials: as §11
In a further assay the test system is Lolium perenne (LOLPE). The assay is described as above. As to conditions: Lolium perenne, 312 h, application rate 250 g/ha, 13 days after application, visual (100%=total damage; 0%=no damage), read-out: Post-emergence Herbicidal Activity (% Phytotoxicity) LOLPE. The essentials:
as §11

[8] abbreviates: herbicide 30 g/ha, cloquintocet-mexyl 50 g/ha.
[9] abbreviates: herbicide 45 g/ha, cloquintocet-mexyl 50 g/ha.
The mark [10] stands for this setting: herbicide 60 g/ha, cloquintocet-mexyl 0 g/ha.
[11] abbreviates: herbicide 60 g/ha, cloquintocet-mexyl 50 g/ha.
Setting [12] is: 30 g/ha herbicide, 50 g/ha cloquintocet-mexyl.
The mark [13] stands for this setting: 45 g/ha herbicide, 50 g/ha cloquintocet-mexyl.
[14] abbreviates: 60 g/ha herbicide, 0 g/ha cloquintocet-mexyl.
Setting [15] is: 60 g/ha herbicide, 50 g/ha cloquintocet-mexyl.

With `Cc1cc(C)c(C2C(=O)C[C@@H](CCNC(=O)c3ccc(Br)cn3)C2=O)c(C)c1` (stereo partly shown) [Compound A120A], the “Percentage Phytotoxicity Winter Barley “Suzuka”” value in the assay with Winter Barley “Suzuka” (setting [8]) amounted to 23%; with Winter Barley “Suzuka” (setting [9]) it was 75%; in the assay with Winter Barley “Suzuka” (setting [10]), 93%; with Winter Barley “Suzuka” (setting [11]), 83%. Also, the “Percentage Phytotoxicity Winter Wheat “Hereward”” value with Winter Wheat “Hereward” (setting [8]) came to 53%; in the assay with Winter Wheat “Hereward” (setting [9]), 60%; with Winter Wheat “Hereward” (setting [10]) it was 73%; with Winter Wheat “Hereward” (setting [11]), 65%. Moreover, the “Percentage Phytotoxicity Spring Barley “Harrington”” value in [1] (setting [8]) is 30%; in [1] (setting [9]), 60%; in assay [1] (setting [10]), 85%; in [1] (setting [11]), 73%. Besides, the “Post-emergence herbicidal activity, percentage phytotoxicity, LOLMU” value in assay [2] (setting [12]) is on record as 97%; in [2] (setting [13]) it was 100%; in assay [2] (setting [14]), 100%; in assay [2] (setting [15]), 100%. The “Post-emergence herbicidal activity, percentage phytotoxicity, ALOMY” value in assay [3] (setting [12]) came to 80%; in assay [3] (setting [13]), 88%; in assay [3] (setting [14]), 95%; in assay [3] (setting [15]), 90%. Also, the “Post-emergence herbicidal activity, percentage phytotoxicity, AVEFA” value with Avena fatua (AVEFA) [4] (setting [12]) was found to be 90%; with Avena fatua (AVEFA) [4] (setting [13]), 95%; in the assay on Avena fatua (AVEFA) [4] (setting [14]), 97%; in the assay with Avena fatua (AVEFA) [4] (setting [15]), 97%. In addition, the “Post-emergence herbicidal activity, percentage phytotoxicity, POAAN” value amounted to 3% in the assay on Poa annua (POAAN) (setting [12]), 5% with Poa annua (POAAN) (setting [13]), 30% in the assay on Poa annua (POAAN) (setting [14]) and 10% with Poa annua (POAAN) (setting [15]). In addition, the “Post-emergence herbicidal activity, percentage phytotoxicity, SETVI” value with Setaria viridis (SETVI) (setting [12]), in the assay on Setaria viridis (SETVI) (setting [13]), with Setaria viridis (SETVI) (setting [14]) and in the assay on Setaria viridis (SETVI) (setting [15]) was 100% in each case.
Regarding `CCCCC(=O)OC1=C(c2c(C)cc(C)cc2C)C(=O)C(CCNC(=O)c2ccc(Br)cn2)C1` (stereo not shown) [Compound P12], the pest or weed control at 250 g/ha (in assay [5]; in the assay on Avena fatua (AVEFA) [6]; in assay [7]; with Lolium perenne (LOLPE)) was 100% each time.
As to `Cc1cc(C)c(C2=C(OC(=O)C(C)(C)C)CC(CCNC(=O)c3ccc(Br)cn3)C2=O)c(C)c1` (stereo not shown) [Compound P13], the pest or weed control at 250 g/ha (in assay [5]; in the assay on Avena fatua (AVEFA) [6]; in assay [7]; with Lolium perenne (LOLPE)) was 100% in each case.
In the case of `Cc1cc(-n2cc(Cl)cn2)cc(C)c1C1=C(OC(=O)c2ccc(F)cc2)CC(CCNC(=O)c2ccccn2)C1=O` (stereo not shown) [Compound P14], the pest or weed control at 250 g/ha (in assay [5]; in the assay with Avena fatua (AVEFA) [6]; in assay [7]; in the assay with Lolium perenne (LOLPE)) was 100% throughout.
For `CCCCS(=O)(=O)OC1=C(c2c(C)cc(-n3cc(Cl)cn3)cc2C)C(=O)C(CCNC(=O)c2ccccn2)C1` (stereo not shown) [Compound P15], the pest or weed control at 250 g/ha (in [5]; in the assay on Avena fatua (AVEFA) [6]; in assay [7]; in the assay on Lolium perenne (LOLPE)) was 100% in each case.
`Cc1cc(-n2cc(Cl)cn2)cc(C)c1C1=C(OS(=O)(=O)c2ccc(F)cc2)CC(CCNC(=O)c2ccccn2)C1=O` (stereo not shown) [Compound P16]: the pest or weed control at 250 g/ha in [5] worked out at 100%; with Avena fatua (AVEFA) [6], 90%; in [7] it was 100%; in the assay on Lolium perenne (LOLPE) it was 100%.
As for `Cc1cc(C)c(C2=C(OC(=O)c3ccc(F)cc3)CC(CCNC(=O)c3ccc(Br)cn3)C2=O)c(C)c1` (stereo not shown) [Compound P17], the pest or weed control at 250 g/ha (in [5]; in the assay with Avena fatua (AVEFA) [6]; in [7]; in the assay on Lolium perenne (LOLPE)) was 100% in each case.
Turning to `CCCCS(=O)(=O)OC1=C(c2c(C)cc(C)cc2C)C(=O)C(CCNC(=O)c2ccc(Br)cn2)C1` (stereo not shown) [Compound P18], the pest or weed control at 250 g/ha in assay [5] came out at 100%; in the assay with Avena fatua (AVEFA) [6], 90%; in assay [7] it was 100%; in the assay on Lolium perenne (LOLPE), 100%.
Turning to `Cc1cc(C)c(C2=C(OS(=O)(=O)c3ccc(F)cc3)CC(CCNC(=O)c3ccc(Br)cn3)C2=O)c(C)c1` (stereo not shown) [Compound P19], the pest or weed control at 250 g/ha (in assay [5]; in the assay on Avena fatua (AVEFA) [6]; in assay [7]; in the assay on Lolium perenne (LOLPE)) was 100% throughout.
As for `CCOCOC1=C(c2c(C)cc(C)cc2C)C(=O)C(CCNC(=O)c2ccc(Br)cn2)C1` (stereo not shown) [Compound P20], the pest or weed control at 250 g/ha (in assay [5]; in the assay on Avena fatua (AVEFA) [6]; in assay [7]; in the assay with Lolium perenne (LOLPE)) was 100% each time.
Consider `Cc1cc(-n2cc(Cl)cn2)cc(C)c1C1=C(OC(=O)N2CCCC2)CC(CCNC(=O)c2ccccn2)C1=O` (stereo not shown) [Compound P21], for which the pest or weed control at 250 g/ha amounted to 80% in assay [5], 80% with Avena fatua (AVEFA) [6], 100% in assay [7] and 70% in the assay on Lolium perenne (LOLPE).
Turning to `Cc1cc(C)c(C2=C(OC(=O)N3CCCC3)CC(CCNC(=O)c3ccc(Br)cn3)C2=O)c(C)c1` (stereo not shown) [Compound P22], the pest or weed control at 250 g/ha in assay [5] was found to be 90%; with Avena fatua (AVEFA) [6] it was 100%; in assay [7], 100%; with Lolium perenne (LOLPE), 100%.
